Assay results: patent US20070275936A1, “Formulations and Treatment Methods” (priority 1998, published 2007)

How the values were obtained:
[1] = system: Chloroquine sensitive T996/86 P. falciparum; test: In vitro antimalarial testing (schizont inhibition / 3H-hypoxanthine incorporation); type: cell-based; conditions: Plasmodium falciparum, T996
Procedure: For in vitro antimalarial testing, micro-titer plates were used. The concentration of drugs were prepared as pMol/well according to WHO standard procedures (WHO, 1990). The test compound was dissolved in 15% DMSO in sterile RPMI-1640. Both chloroquine sensitive (e.g., WS/97) and resistant (e.g., MN/97) isolates of Plasmodium species are used.
A schizont inhibition assay was performed as follows. The micro-titer plates were predosed with various concentrations of the test compound. 50 μL of parasitised erythrocyte suspension in RPMI-1640 (0.2 mL erythrocyte+0.3 mL serum+4-5 ml RPMI-1640) were dispensed in microtiter wells that contained various concentrations of drug. Triplicate readings were made for each concentration.
A ^3H-hypoxanthine incorporation assay was performed as follows. The testing was carried out according to the procedure of Desjardins et al. 1979. After 30 hr culture at 37 degrees C., the same microtiter plates from schizont inhibition assays with another triplicate wells were pulsed with ^3H-hypoxanthine for overnight. The cell suspensions were washed twice on millipore glass fiber filter with Millipore filter apparatus. The filter discs were counted for DPM by a Beckman LS6000 β-scintillation counter. The activity of the drug was measured by plotting DPM against concentration of drug.

Sprague Dawley rats = test: TNBS induced distal colitis in rats; type: in vivo; conditions: day 14
Procedure: In another protocol formula 1 compounds were used in a similar animal model. Groups of 10 male Sprague Dawley rats (250-300 grams) were fasted for 24 hours before 2,4,6-trinitrobenzene sulfonic acid (TNBS) or saline challenge. This model presents a severe challenge to the animal's immune system. On Day 0, the rats were lightly anesthetized and a catheter inserted rectally into the colon such that the tip was 8 cm proximal to the anus. Distal colitis was induced by intra-colonic instillation of 0.5 mL of an ethanolic solution of TNBS (60 mg/mL ethanol 50% in water). The test substance, 7-oxodehydroepiandrosterone 20 mg/mL in vehicle or vehicle control was administered by subcutaneous injection (0.1 mL/injection) once a day for 6 days, the first dose being given 30 minutes after TNBS challenge. Sulfasalazine (30 mg/mL in 2% Tween 80 in distilled water) or vehicle control was administered orally (PO) once a day (10 mL/kg/day) for 7 days, the first two doses beginning 24 hours and 2 hours before […] challenge. Signs of diarrhea were recorded daily by examining the anal area. Animals were fasted for 24 hours prior to sacrifice on day 14 and the colon was removed and weighed. After gross observations of colonic tissues, 3 samples were taken from regions approximately 1, 3, and 8 cm proximal to the anus. If gross ulcers or inflammation were present, at least one sample was taken from the affected region. Before removal of the colon, signs of adhesion between the colon and other organs were recorded. […] Body weight, colon-to-body-weight ratio, and damage scores were assessed. Visible damage was scored on a 1-5 scale as follows: 0=No damage; 1=Localized hyperemia but no ulcers; 2=linear ulcers with no significant inflammation; 3=Linear ulcers with inflammation at one site; 4=Two or more sites of ulceration and/or inflammation; 5=Two or more major sites of ulceration and inflammation or one major site of ulceration and inflammation extending more than 1 cm along the length of the colon. […]

BALB/c mice = test: Reversal of immunosenescence: HBsAg vaccination of aged mice; type: in vivo; conditions: for mice producing anti-HBsAg in response to secondary vaccination: groups of 8, 0.3 mg/mouse at primary vaccination
Procedure: Healthy aged (20-month) or immunologically-mature (3-month) BALB/c mice were vaccinated with hepatitis B surface antigen (HBsAg) (2 μg; Recombivax-HB; Merck) and Alum (2.75 μg). The aged mice were vaccinated with the antigen and also received a single subcutaneous injection of either 0.3 mg or 3.0 mg of 3β,7β,17β-trihydroxyandrost-5-ene (AET), BrEA or 7-oxodehydroepiandrosterone, dehydroepiandrosterone or the vehicle (placebo control). The AET, BrEA hemihydrate or dehydroepiandrosterone was present in a formulation that contained 60 mg/mL of the compound suspended in 0.1% w/v carboxymethyl cellulose sodium in 0.9% saline. 7-Oxodehydroepiandrosterone was in a formulation that contained 60 mg/mL of the compound suspended in 0.1% w/v gum arabic in 0.9% saline. A concentration of 6 mg/mL was obtained by diluting the 60 mg/mL formulation with vehicle that lacked the active substance.
Blood samples were collected 14, 21 and 34 days after treatment and the sera were analyzed by ELISA to determine the concentration of HBsAg-specific IgG (total IgG). In addition, samples obtained on day 21 were analyzed to determine the concentration of HBsAg-specific IgG1 and IgG2a subclasses. The results summarized below were average values obtained with blood samples collected 21 days after vaccination of groups of 8 mice. Subcutaneous injection was performed after shaving the hair from the thighs of each mouse. The injected volume was 50 μL for compound (3.0 mg or 0.3 mg) or placebo, and for vaccine preparation. The vehicle control consisted of carboxymethylcellulose (0.5%) in saline (0.9%). Antibody titers were determined by ELISA.
Secondary antibody response. Later, 42 days after the initial exposure to HBsAg, serum samples were taken from the mice described in the previous section and these were tested for anti-HBsAg IgG. At this time-point, vaccine-specific IgG titers were either low or undetectable. Three days later (45 days after first vaccination), the mice were injected again with HBsAg in Alum, but this time, none of the mice received immunosteroid (secondary vaccination). Serum samples collected 7 days and 14 days after the second exposure to HBsAg vaccine were assayed for anti-HBsAg antibody. […] In contrast, in aged mice that had received no immunosteroid with the first HBsAg injection, low levels of anti-HBsAg were detectable, and only in 4 of the 8 mice in this group was antibody detectable. Increases in anti-HBsAg titers were seen following secondary vaccination in aged animals that had been treated with immunosteroid in conjunction with the first HBsAg exposure. The anti-HBsAg antibody titer in serum increased following secondary vaccination in all 8 mice in the groups of aged mice that were treated at primary vaccination with the higher dose (3 mg/mouse) of AET, BrEA or 7-oxodehydroepiandrosterone, or with dehydroepiandrosterone (0.3 mg/mouse). In those aged mice that had received the lower dose (0.3 mg/mouse) of AET, BrEA or 7-oxodehydroepiandrosterone at vaccination, an intermediate response was seen, with 6 of the 8 mice producing detectable anti-HBsAg in response to secondary vaccination.

Row | Structure (SMILES) | IC50 [1] | inhibition at 0.938 µM [1] | inhibition at 1.875 µM [1] | inhibition at 3.25 µM [1] | inhibition at 7.5 µM [1] | inhibition at 15 µM [1] | inhibition at 30 µM [1] | histopathology: inflammation / lesion frequency and severity versus controls (Sprague Dawley rats) | mice producing anti-HBsAg in response to secondary vaccination (BALB/c mice) | mice with increased anti-HBsAg antibody titer following secondary vaccination (BALB/c mice; groups of 8, 3 mg/mouse at primary vaccination)
1 | C[C@]12CC[C@H](O)C[C@@H]1CC[C@@H]1[C@@H]2CC[C@]2(C)C(=O)[C@H](Br)C[C@@H]12 [BrEA, 16α-bromo-3β-hydroxy-5α-androstane-17-one] | 7.5 µM | 31.8% | 40.9% | 43.7% | 50% | 60.1% | 98% | appeared to be similar | 6 mice | 8 mice
2 | C[C@]12CC[C@H](O)CC1=CC[C@@H]1[C@@H]2CC[C@]2(C)C(=O)CC[C@@H]12 [DHEA, dehydroepiandrosterone, reference compound] | 19 µM | 37.2% | 23.2% | 37.2% | 38.3% | 44% | 65.6% | appeared to be similar | 8 mice | 
